Results reported in EPA's ToxRefDB 2.

What was measured:
[1] = test system: rat; details: Subchronic oral toxicity in rodents, sprague dawley, Feed, dose end: 13 week, group: systemic, systemic / clinical chemistry / globulins / globulins + systemic / clinical chemistry / protein / protein + systemic / organ weight / liver…
[2] = test system: dog; details: Subchronic oral toxicity in nonrodent, beagle, Feed, dose end: 13 week, group: systemic
[3] = test system: mouse; details: Subchronic oral toxicity in rodents, cd1, Feed, dose end: 13 week, group: systemic
[4] = test system: rat; details: Combined chronic toxicity/carcinogenicity, sprague dawley, Oral, Feed, dose end: 104 week, group: systemic
[5] = test system: rat; details: Multigenerational reproductive toxicity study, sprague dawley, Oral, Feed, dose end: 2 generation
[6] = test system: rabbit; details: Prenatal developmental toxicity study, other, Oral, Gavage/Intubation, dose end: 18 GD
[7] = test system: rat; details: Subchronic oral toxicity in rodents, fischer, Gavage/Intubation, dose end: 14 week, group: systemic
[8] = test system: rat; details: Combined chronic toxicity/carcinogenicity, fischer, Oral, Gavage/Intubation, dose end: 104 week, group: systemic
[9] = test system: mouse; details: Subchronic oral toxicity in rodents, b6c3f1, Gavage/Intubation, dose end: 14 week, group: systemic
[10] = test system: mouse; details: Combined chronic toxicity/carcinogenicity, b6c3f1, Oral, Gavage/Intubation, dose end: 104 week, group: systemic
[11] = test system: rat; details: Combined chronic toxicity/carcinogenicity, sprague dawley, Oral, Feed, dose end: 2 year, group: systemic
[12] = test system: mouse; details: Subchronic oral toxicity in rodents, cd1, Feed, dose end: 90 day, group: systemic
[13] = test system: rat; details: Multigenerational reproductive toxicity study, sprague dawley, Oral, Feed, dose end: 2 generation; remark: listed apart in the source
[14] = test system: mouse; details: Carcinogenicity; cd1; Oral; Feed; dose end: 80 week; group: systemic; systemic / in life observation / body weight / body weight + systemic / in life observation / body weight / body weight gain + systemic / …
[15] = test system: rat; details: Subchronic oral toxicity in rodents, sprague dawley, Feed, dose end: 90 day, group: systemic
[16] = test system: dog; details: Chronic toxicity, beagle, Oral, Feed, dose end: 52 week, group: systemic
[17] = test system: rat; details: Multigenerational reproductive toxicity study, wistar, Oral, Feed, dose end: 2 generation
[18] = test system: mouse; details: Carcinogenicity, cd1, Oral, Feed, dose end: 104 week, group: systemic
[19] = test system: mouse; details: Combined chronic toxicity/carcinogenicity, cd1, Oral, Feed, dose end: 104 week, group: systemic
[20] = test system: rat; details: Prenatal developmental toxicity study, sprague dawley, Oral, Gavage/Intubation, dose end: 15 GD
[21] = test system: dog; details: Chronic toxicity; beagle; Oral; Feed; dose end: 6 month; group: systemic; systemic / clinical chemistry / cholesterol / cholesterol + systemic / organ weight / liver / absolute + systemic / organ weight / liver / …
[22] = test system: rabbit; details: Prenatal developmental toxicity study, new zealand white, Oral, Gavage/Intubation, dose end: 19 GD
[23] = systemic / clinical chemistry / triglycerides / triglycerides + systemic / in life observation / clinical signs / mucoid stools + systemic…
[24] = systemic / in life observation / clinical signs / vomiting
[25] = systemic / clinical chemistry / alkaline phosphatase (alp/alk) / alkaline phosphatase (alp/alk) + systemic / organ weight / liver / absolute…
[26] = systemic / in life observation / clinical signs / tooth-malocclusion
[27] = group: offspring, developmental / offspring survival late / viability index / viability index + systemic / in life observation / body weight / offspring (pup…
[28] = group: parental, systemic / organ weight / adrenal gland / relative to body weight + systemic / organ weight / adrenal gland / relative to brain weight
[29] = group: parental, systemic / organ weight / adrenal gland / relative to body weight + systemic / organ weight / adrenal gland / relative to brain weight + …
[30] = group: developmental, developmental / developmental malformation / bone / full supernumerary
[31] = group: maternal, systemic / in life observation / body weight / body weight gain + systemic / in life observation / food consumption / food consumption + …
[32] = systemic / in life observation / body weight / body weight + systemic / in life observation / body weight / body weight gain
[33] = systemic / in life observation / body weight / body weight + systemic / in life observation / body weight / body weight gain + systemic / …
[34] = systemic / pathology microscopic / liver / basophilic focus
[35] = systemic / pathology microscopic / pancreas / atrophy + systemic / pathology microscopic / pancreas / hyperplasia + systemic / pathology …
[36] = systemic / pathology microscopic / adrenal gland / atrophy + systemic / pathology microscopic / adrenal gland / vacuolization + systemic / …
[37] = systemic / pathology microscopic / salivary glands / cytoplasmic alteration
[38] = systemic / pathology microscopic / salivary glands / cytoplasmic alteration + systemic / pathology microscopic / liver / carcinoma
[39] = systemic / organ weight / kidney / absolute + systemic / organ weight / kidney / relative to brain weight
[40] = systemic / organ weight / kidney / absolute + systemic / organ weight / kidney / relative to brain weight + systemic / pathology microscopic…
[41] = systemic / in life observation / body weight / body weight + systemic / in life observation / body weight / body weight gain + systemic / in…
[42] = group: offspring, systemic / in life observation / body weight / offspring (pup) weight
[43] = group: offspring, systemic / in life observation / body weight / offspring (pup) weight + systemic / in life observation / body weight / offspring (pup) …
[44] = group: parental, systemic / in life observation / body weight / body weight + systemic / in life observation / body weight / body weight gain + systemic / in…
[45] = systemic / in life observation / food consumption / food consumption
[46] = group: offspring, systemic / in life observation / body weight / offspring (pup) weight gain + systemic / organ weight / liver / relative to body weight
[47] = group: offspring, systemic / in life observation / body weight / offspring (pup) weight gain + systemic / organ weight / liver / relative to body weight + …
[48] = group: parental, systemic / organ weight / kidney / absolute + systemic / organ weight / kidney / relative to body weight + systemic / organ weight / liver…
[49] = group: reproductive, reproductive / reproductive performance / precoital interval / precoital interval
[50] = systemic / organ weight / liver / absolute + systemic / organ weight / liver / relative to body weight + systemic / pathology gross / spleen…
[51] = systemic / pathology microscopic / liver / [other]
[52] = systemic / organ weight / liver / absolute + systemic / pathology gross / spleen / enlarged + systemic / pathology microscopic / kidney / …
[53] = group: developmental, developmental / developmental malformation / bone / bipartite ossification + developmental / developmental malformation / bone / short …
[54] = group: maternal, systemic / in life observation / body weight / body weight gain
[55] = group: maternal, systemic / in life observation / body weight / body weight gain + systemic / in life observation / food consumption / food consumption
[56] = group: developmental, developmental / developmental malformation / bone / incomplete ossification + developmental / developmental malformation / bone / …
[57] = group: developmental, developmental / developmental malformation / bone / unossified
[58] = group: maternal, reproductive / reproductive performance / aborted / aborted + systemic / in life observation / body weight / body weight gain

CCOc1cc(C(C)(C)C)ccc1C1COC(c2c(F)cccc2F)=N1 (stereo unspecified) [Etoxazole]
LEL [1]: 300 mg/kg/day
LOAEL [1]: 300 mg/kg/day
NEL [1]: < 300 mg/kg/day
NOAEL [1]: < 300 mg/kg/day
LOAEL [2, 23]: 53.7 mg/kg/day
NOAEL [2, 23]: 5.33 mg/kg/day
LEL [2, 24]: 5.33 mg/kg/day
NEL [2, 24]: < 5.33 mg/kg/day
LOAEL [3, 25]: 878 mg/kg/day
NEL [3, 25]: 55.1 mg/kg/day
NOAEL [3, 25]: 214 mg/kg/day
LEL ([3]; systemic / organ weight / liver / absolute + systemic / organ weight / liver / relative to body weight + systemic / pathology microscopic / …): 214 mg/kg/day
LOAEL ([4]; systemic / in life observation / clinical signs / tooth nos): 187 mg/kg/day
NOAEL ([4]; systemic / in life observation / clinical signs / tooth nos + systemic / hematology / blood clotting / blood clotting - activated partial …): 1.83 mg/kg/day
LEL [4, 26]: 2.07 mg/kg/day
NEL [4, 26]: < 2.07 mg/kg/day
LOAEL ([5]; group: offspring, developmental / offspring survival late / viability index / viability index): 157 mg/kg/day
LEL [5, 27]: 157 mg/kg/day
NEL [5, 27]: 31.6 mg/kg/day
NOAEL [5, 27]: 31.6 mg/kg/day
NEL [5, 28]: 33.4 mg/kg/day
NOAEL [5, 28]: 33.4 mg/kg/day
LEL [5, 29]: 139 mg/kg/day
LOAEL [5, 29]: 139 mg/kg/day
LEL [6, 30]: 1000 mg/kg/day
LOAEL [6, 30]: 1000 mg/kg/day
NEL [6, 30]: 200 mg/kg/day
NOAEL [6, 30]: 200 mg/kg/day
LEL [6, 31]: 1000 mg/kg/day
LOAEL [6, 31]: 1000 mg/kg/day
NEL [6, 31]: 200 mg/kg/day
NOAEL [6, 31]: 200 mg/kg/day

C[C@]12CCC(=O)C=C1CC[C@@H]1[C@@H]2CC[C@]2(C)C(=O)CC[C@@H]12 [4-Androstene-3,17-dione]
LEL [7, 32]: 1 mg/kg/day
NEL [7, 32]: < 1 mg/kg/day
LOAEL [7, 33]: > 50 mg/kg/day
NOAEL [7, 33]: ≥ 50 mg/kg/day
LEL [8, 34]: 10 mg/kg/day
NEL [8, 34]: < 10 mg/kg/day
LOAEL [8, 35]: 50 mg/kg/day
NOAEL [8, 35]: 20 mg/kg/day
LEL ([9]; systemic / pathology microscopic / adrenal gland / atrophy): 5 mg/kg/day
NEL ([9]; systemic / pathology microscopic / adrenal gland / atrophy + systemic / pathology microscopic / adrenal gland / vacuolization): 1 mg/kg/day
LOAEL [9, 36]: > 50 mg/kg/day
NOAEL [9, 36]: ≥ 50 mg/kg/day
LOAEL [10, 37]: 2 mg/kg/day
NOAEL [10, 37]: < 2 mg/kg/day
LEL [10, 38]: 2 mg/kg/day
NEL [10, 38]: < 2 mg/kg/day

CCCOC(=O)c1ccc(C(=O)OCCC)nc1 [Dipropyl pyridine-2,5-dicarboxylate]
LEL [11, 39]: 250 mg/kg/day
LOAEL [11, 39]: 250 mg/kg/day
NEL [11, 40]: 65 mg/kg/day
NOAEL [11, 40]: 65 mg/kg/day
LOAEL [12, 41]: 2000 mg/kg/day
NOAEL [12, 41]: 1000 mg/kg/day
LEL ([12]; systemic / organ weight / kidney / absolute + systemic / organ weight / kidney / relative to body weight): 500 mg/kg/day
NEL ([12]; systemic / organ weight / kidney / relative to body weight + systemic / organ weight / liver / relative to body weight): 250 mg/kg/day
LEL [13, 42]: 289 mg/kg/day
LOAEL [13, 42]: 289 mg/kg/day
NEL [13, 43]: 72.9 mg/kg/day
NOAEL [13, 43]: 72.9 mg/kg/day
LOAEL [13, 44]: 1020 mg/kg/day
NEL [13, 44]: 66 mg/kg/day
NOAEL [13, 44]: 255 mg/kg/day
LEL ([13]; group: parental, systemic / in life observation / food consumption / food consumption): 255 mg/kg/day
LEL [14]: 494 mg/kg/day
LOAEL [14]: 494 mg/kg/day
NEL [14]: 124 mg/kg/day
NOAEL [14]: 124 mg/kg/day
LEL ([15]; systemic / hematology / hematocrit (hct) / hematocrit (hct)): 500 mg/kg/day
LOAEL [15, 33]: 1000 mg/kg/day
NEL [15, 33]: 250 mg/kg/day
NOAEL [15, 33]: 500 mg/kg/day
LOAEL ([16]; systemic / in life observation / body weight / body weight gain): 148 mg/kg/day
NOAEL ([16]; systemic / in life observation / body weight / body weight gain + systemic / in life observation / body weight / body weight + systemic / in…): 34.3 mg/kg/day
LEL [16, 45]: 8.12 mg/kg/day
NEL [16, 45]: < 8.12 mg/kg/day

CNc1cnn(-c2cccc(C(F)(F)F)c2)c(=O)c1Cl [Norflurazon]
LEL [17, 46]: 67.8 mg/kg/day
LOAEL [17, 46]: 67.8 mg/kg/day
NEL [17, 47]: 13.2 mg/kg/day
NOAEL [17, 47]: 13.2 mg/kg/day
LEL [17, 48]: 50.8 mg/kg/day
LOAEL [17, 48]: 50.8 mg/kg/day
NEL [17, 48]: 10.2 mg/kg/day
NOAEL [17, 48]: 10.2 mg/kg/day
LEL [17, 49]: 102 mg/kg/day
LOAEL [17, 49]: 102 mg/kg/day
NEL [17, 49]: 50.8 mg/kg/day
NOAEL [17, 49]: 50.8 mg/kg/day
LOAEL [18, 50]: 58.7 mg/kg/day
NOAEL [18, 50]: 12.8 mg/kg/day
LEL [18, 51]: 12.8 mg/kg/day
NEL [18, 51]: < 12.8 mg/kg/day
NEL ([19]; systemic / organ weight / liver / absolute + systemic / organ weight / liver / relative to body weight + systemic / pathology gross / liver…): 12.8 mg/kg/day
LEL [19, 52]: 58.7 mg/kg/day
LOAEL [19, 52]: 58.7 mg/kg/day
NOAEL [19, 52]: 12.8 mg/kg/day
LEL [20, 53]: 400 mg/kg/day
LOAEL [20, 53]: > 400 mg/kg/day
NEL [20, 53]: 200 mg/kg/day
NOAEL [20, 53]: ≥ 400 mg/kg/day
LOAEL [20, 54]: 100 mg/kg/day
NOAEL [20, 54]: < 100 mg/kg/day
LEL [20, 55]: 100 mg/kg/day
NEL [20, 55]: < 100 mg/kg/day
LEL [21]: 4.77 mg/kg/day
LOAEL [21]: 4.77 mg/kg/day
NEL [21]: 1.58 mg/kg/day
NOAEL [21]: 1.58 mg/kg/day
LOAEL [22, 56]: 30 mg/kg/day
NOAEL [22, 56]: 10 mg/kg/day
LEL [22, 57]: 10 mg/kg/day
NEL [22, 57]: < 10 mg/kg/day
LEL [22, 58]: 60 mg/kg/day
LOAEL [22, 58]: 60 mg/kg/day
NEL [22, 58]: 30 mg/kg/day
NOAEL [22, 58]: 30 mg/kg/day
